Experimental data as given in PMC5554167, “Intestinal transepithelial permeability of oxytocin into the blood is dependent on the receptor for advanced glycation end products in mice” (Scientific Reports, 2017).

How the values were obtained:
[1] = much longer in mucosal tissues; cited from earlier work
Excerpt: OT absorption through the intestine was more difficult to detect in adults. The reasons for this difference with age may be owing to the progressive digestion of OT and strengthening of the gastrointestinal tract barrier. Similarly, a gradual decline in plasma OT concentrations during development appears to be caused by establishment of the intestinal barrier and intestinal digestion (Ref. [49] and Fig. 3d). Digestion is at a low level at birth and increases progressively during the first week in mice and humans. However, digestion of OT takes more than 30 min and is much longer in mucosal ...

[2] = Plasma OT after suckling of dam's milk in pups, estimate of availability; type: in vivo, mice
Procedure: […] No clear difference in the OT level was observed between male and female pups.
An estimation of bioavailability was performed in adult mice. Fifty ng/mL of OT was detected after oral delivery of 10 μg of OT. Young adults weigh approximately 30 g and have 2.3 mL blood, so approximately 1% of oral OT can be absorbed. We have previously identified OT in the mammary tissues of mouse dams and in the milk curd inside the oesophagi of pups[13]. To determine the OT concentrations in milk, we needed to collect milk from the mothers. One common method is to collect milk after stimulating secretion with external OT. Because such milk contains external OT, we were unable to calculate the OT concentrations in milk. However, we carried out a new collection method without exogenous OT stimulation. We obtained samples at 5 days after parturition, and the concentration of milk OT was 1,200 pg/mL. If we estimate a pup’s milk intake to be 100 μL, the pups will ingest 120 pg of OT. […] According to Tanaka et al.[11], when [^3H]OT is administered to lactating rats, the radioactivity of intact OT in the neonatal content is 4.4% of the counts obtained for the maternal plasma. […]
(§1) OT or AVP immunoreactivity levels were quantified by using OT and AVP enzyme immunoassay (EIA) kits (Enzo Life Sciences, NY, USA), respectively. […]

[3] = Plasma OT after oral delivery of OT in adult mice (EIA); type: in vivo
Procedure: In adult male mice (8 weeks old), when oral OT was administered at the same dose used for neonates (1 μg/mouse), as in Fig. 1b, no increase in the plasma OT concentration was observed (data not shown). To examine whether permeability exists in the adult intestine after barrier formation, a 10-fold higher volume of OT (100 μM × 100 μL) was used for oral delivery (10 μg/mouse). Blood samples were collected from anesthetized mice using a tail snip procedure, and OT concentrations were measured (Fig. 5a, inset).
Milk-borne OT was fed by mothers for 20 min after 20 min of starvation. A synthetic OT solution (100 µM; 10 μL for pups and 100 μL for adults) was administered orally. The same dose of [ILe^13C, ^15N]OT was delivered orally to pups. For oral administration, pups or adult mice were held by hand, and the OT solution was dispensed into their mouths using polypropylene tips.
(§2) Approximately 30 μL of blood was collected from the facial vein of neonates after quick cold anesthesia on ice (Fig. 1a; ref. [67], [68]). […]
as §1

[4] = Plasma OT after oral delivery of OT in pups (EIA); type: in vivo, mice; conditions: both sexes, C57BL/6N, 1 μg/mouse, wild-type pups PND6, oral 1 μg of OT/mouse, n = 5–8, read-out: Time of peak plasma OT concentration (converted)
Procedure: The possibility of transport during the suckling period of development (from PND1 to PND15) was confirmed by comparing plasma OT levels at 10 min after oral delivery with 10 μL of 100 μM synthetic OT solution (1 μg/pup) or the same volume of phosphate buffered saline (PBS) to male and female pups after fasting for 30 min. […] The plasma OT concentrations after oral OT delivery remained at higher levels at PND3–5 than in the saline controls (two-way analysis of variance (ANOVA), F 8.90 = 3.32, P < 0.002: Bonferroni’s post hoc tests for differences between OT and PNDs (^a P < 0.001, ^b P < 0.01, and ^c P < 0.05 from the value at PND8) and between OT and PBS (^d P < 0.01). The OT concentration dropped suddenly after PND6, although it remained higher than that in the saline control group. At PND8 and PND15, no concentration difference in plasma OT levels was observed between pups orally administered OT vs. those administered PBS.
The time profile of the plasma OT concentration after oral administration of OT peaked at 10 min in pups at PND6 (n = 5–8, one-way ANOVA, F 5,37 = 3.302, P < 0.02 from the control value; Fig. 1c). The plasma OT level depended on the oral OT dose in pups at PND6 (one-way ANOVA, F 3,24 = 20.35, P < 0.0001; Fig. 1d). […]
as §1

[5] = cited from earlier work
Excerpt: Breast milk contains a dynamic supply of hormones, including oxytocin (OT[4], [5], [10]–[15]), which is concentrated from the mother’s general circulation. […] OT in early life plays a role in the development of the social brain and in establishing social behaviour in adults, [20]–[23]. Therefore, breast milk not only nourishes beneficial microbes and provides immunity but also appears to improve well-being by improving human communication, [24]–[28]. Altho ...

[6] = Plasma OT after intestinal delivery of OT in pups (EIA); type: in vivo, mice
Procedure: To confirm that the above increase after oral administration was primarily owing to permeability from the intestine, 5 μL of 100 μM OT (0.5 μg/pup) was applied directly into the small intestine, bypassing the mouth, buccal mucosal membrane, and/or upper parts of the digestive tract, including the oesophagus and stomach. The plasma OT in blood samples collected from the neck (Fig. 2a, inset) reached a peak at 10 min and decreased at 60 min and 120 min after intestinal application (Supplementary Fig. 1). […] The plasma OT level was higher at PND1 and PND3 than at PND7 in the group injected with OT (***P < 0.001 and **P < 0.01; Fig. 2a).
OT (100 μM) was injected through needles (28 G) into the proximal part (1~2 cm from the pylorus) of the small intestine of pups (5 μL) and adults (100 μL) under ketamine anaesthesia ([…] intraperitoneally), after the abdominal skin was cut to expose the small intestine in the abdominal cavity. The intestine was returned to the cavity or covered with paper and rinsed with saline. For the isolated pup intestines, 30 μL of 10 μM OT was injected at the distal end.
as §2, §1

[7] = [3H]OT administered to lactating rats; cited from earlier work

| Compound | Time for digestion of OT [1] | Availability of milk OT ([2]; PND5 pups, milk OT 1,200 pg/mL, milk intake 100 μL (120 pg), blood volume 200 μL, increase 20 pg) [%] | Increase of plasma OT after suckling ([2]; pups fed with dam's milk) | Change of plasma OT concentration ([3]; adult male mice (8 weeks old), oral 1 μg/mouse, data not shown) | Oral OT absorbed (estimated bioavailability) ([3]; adult mice, oral 10 μg of OT, assumes 30 g weight and 2.3 mL blood) | Tmax [4] [min] | Stability in gastric acid [5] | Tmax ([6]; both sexes, C57BL/6N, mouse, plasma, pups (PND5, Supplementary Fig. 1), 0.5 μg/pup into the small intestine, read-out: Time of peak plasma OT concentration (converted)) [min] | Decrease of plasma OT concentration from PND1 to PND7 ([6]; wild-type pups, 10 min after intestinal OT injection (0.5 μg/pup)) | Radioactivity of intact OT in the neonatal content, % of the counts of maternal plasma [7] [%] |
| --- | --- | --- | --- | --- | --- | --- | --- | --- | --- | --- |
| CC[C@H](C)[C@@H]1NC(=O)[C@H](Cc2ccc(O)cc2)NC(=O)[C@@H](N)CSSC[C@@H](C(=O)N2CCC[C@H]2C(=O)N[C@@H](CC(C)C)C(=O)NCC(N)=O)NC(=O)[C@H](CC(N)=O)NC(=O)[C@H](CCC(N)=O)NC1=O [OT, oxytocin] | more than 30 min | 16.6 | approximately 100 pg/mL | no increase | approximately 1% | 10 | relatively stable | 10 | approximately 4.6 fold |  |
| [^3H]OT: tritium-labelled oxytocin administered to lactating rats in a cited study |  |  |  |  |  |  |  |  |  | 4.4 |
